Laboratory results taken from patent US6403619B1, “Method for controlling cell necrosis or apoptosis” (University of Kentucky Research Foundation, priority 1998, dated 2002).

Legend:
[1] = Octanol/water partition coefficient; format: physicochemical; settings: extrapolated from Po/w values of the shorter esters; FIG. 14
From the text: The first issue considered was the physical-chemical properties of the pro-NAD agents most desirable for topical application. The nicotinic acid molecule may not be optimal because it may be too polar to be effectively delivered to skin cells topically. Molecules that are too polar may not effectively partition into the apolar stratum corneum layer of skin and following passage across the stratum corneum, it would be expected to rapidly enter the systemic circulation. To evaluate the potential of these pro-NAD agents to partition into the stratum corneum, the octanol/water partition coefficients for the methyl, eythl-, butyl-, hexyl-, and octyl-esters of nicotinate were experimentally determined.
The octanol/water partition coefficient was determined by dissolving a known amount of pro-NAD agent in water and then mixing the aqueous compound with a known volume of octanol. After mixing for a period of 1 to 18 hours, aliquots of the water phase were analyzed by HPLC for the amount of remaining pro-NAD agent. The partition coefficient (P) was calculated from the following equation:
log Po/w=log10((Co−C)CVo))
where Co is the initial concentration in water and C is the concentration after partitioning. Vw and Vo represent the volume of water and octanol phases respectively.

[2] = Local vasodilation following topical application of cream (assesses rate of hydrolysis to nicotinate); format: in vivo; settings: for duration of vasodilation / onset of vasodilation: topical application of a cream containing 0.05%
From the text: The next issue considered was the rate of hydrolysis of topically applied pro-NAD agents to nicotinic acid such that conversion to NAD can be completed by the pathway shown in FIG. 11. The rates of hydrolysis of a pro-NAD agent following topical application can be assessed by evaluation of local vasodilation following topical application of a pro-NAD agent. […] Experiments have compared the absence or presence of vasodilation (and the time course of vasodilation when present) for a number of the pro-NAD agents shown in FIG. 13. For example, application of a cream containing 0.05% hexylnicotinate results in vasodilation with onset at approximately 10 minutes and duration of approximately 90 minutes. A similar application of octylnicotinate results in an onset of vasodilation at approximately 15 minutes with duration of 360 minutes. […] These experiments indicate that tetradecylnicotinate is released very slowly following application. Two factors are likely involved in the rate of hydrolysis of topically applied pro-NAD agents, the rate of departure from the stratum corneum and the rate of hydrolysis by esterases present in the epidermal and dermal layers of the skin.

NAD content of skin = experiment: Skin NAD content after topical application, hairless mouse model; format: in vivo
Description: (§1) Based on evaluation of pro-NAD agents, proof of principle experiments for elevation of skin cell NAD content by topical delivery were performed using a hairless mouse model. In brief, tetradecylnicotinate was used for the initial studies. In the study three daily topical applications of 1% tetradecylnicotinate cream to the back of the animals and no cream were applied to the abdomen. Immediately following the third application, the skin from the back and abdomen were analyzed for NAD content. Test samples of skin were frozen in liquid nitrogen and powdered by mechanical means. NAD content was assessed as described previously (Jacobson, E L, and Jacobson, M K Meth Enzymol 280, 221-230, 1997; Jacobson, E L et al., J Cell Physiol 99, 417-426, 1979). The NAD assay is based on the principle of enzymic cycling between oxidized and reduced states, in which NAD is rate-limiting for a series of amplification reactions. Total protein was assayed by the Bradford assay.
(§2) In another experiment, the effect of the number of daily application of 1% tetradecylnicotinate cream was examined. Again, application was made to the back of the animal and the abdomen of each animal served as control.

[3] = Signs of toxicity after topical application, hairless mouse model; format: in vivo; settings: topical 1% cream, experiments of FIGS. 15 and 16
Description: as §1, §2

human skin fibroblasts = experiment: Bioconversion of pro-NAD agents to NAD by skin fibroblasts in culture; format: cell-based; settings: FIG. 11
Description: A series of experiments were performed to determine the possible classes of pro-NAD agents that may be used for the elevation of skin cell NAD content by topical application. Any compound that can be converted to NAD is referred to here as a “pro-NAD” agent.

cells [4] = experiment: DNA integrity following genotoxic stress induced by MNNG; format: cell-based; settings: high levels (500 micromolar) compared with normal levels (50 micromolar), FIG. 12A
Description: The DNA repair proficiency as a function of NAD content has been assessed also by a technique called a “comet assay.” In a comet assay (O. Ostling and K. J. Johanson, Biochem. Biophys. Res. Commun. 123: 291 (1984); P. L. Olive and J. P. Banath, Exp. Cell Res. 221: 19 (1995)), cells are plated out after embedding into liquid agarose on a carrier and lysed in situ after formation of an agarose gel. The DNA of the individual cells is then separated in situ in an electric field. Damaged DNA containing strand breaks migrates away from the cell nucleus due to its smaller size and this migration results in an image where the nucleus appears as the head of the comet and the broken DNA appears as tail of the comet. The more degraded the genomic DNA is, the greater the amount of migration-capable DNA and the longer the “comet tail.”

Epithelial cells = experiment: Necrosis and apoptosis of epithelial cells under MNNG genotoxic stress; format: cell-based
Description: Epithelial cells were subjected to genotoxic stress with the alkylating agent N-methyl-N^1-nitro-N-nitrosoguanidine, or “MNNG” as referred to supra and hereafter. Epithelial cells were cultured in the presence of either no MNNG, 10 μg/mL MNNG, or 20 μg/mL of MNNG, in medium containing either 0, 50 μM or 500 μM nicotinamide. Percent necrosis and apoptosis was studied over time, i.e., for 48 hours. […] Nicotinamide is converted to NAD, but as indicated, none was added in the experiments depicted in 17A and 17D.

cells [5] = experiment: Survival under oxidative genotoxic stress caused by staurosporin; format: cell-based; settings: 50 μM in medium compared with none; different concentrations of staurosporin; FIG. 19
Description: These experiments describe studies on oxidative genotoxic stress, caused by staurosporin. Cells were contacted with different concentrations of staurosporin, and were cultured in medium that either contained no nicotinamide or 50 μM nicotinamide.

p53 = settings: high levels of the agent; in the absence of and following genotoxic stress; FIG. 12B
Description: Briefly, cells were grown in control or suboptimal niacin media as described in Example 1 above, resulting in cells with normal or low NAD content. The protein of the cells was then extracted and portions of the extract were separated by SDS-polyacrylamide gel electrophoresis (SDS-PAGE) and p53 protein content was determined by immunoblotting (western blotting). […] FIG. 9B compares the relative content of p53 following genotoxic stress caused by the alkylating agent MNNG in cells with a low or normal NAD content.

[6] = tested on: Malignant epithelial cells; experiment: Doubling of malignant epithelial cell populations under PARP (tankyrase) inhibition; format: cell-based; settings: 0.1 M; after 10 weeks; compared with control grown without it; FIG. 20
Description: Malignant epithelial cells were grown in the presence of 0.1 M benzamide, which is known to inhibit all PARPs. The doubling of the cell populations was observed over a period of time, and compared to a control, which was grown in the absence of benzamide.

[7] = varying number of daily applications of 1% cream to the back, FIG. 16

CCCCCCCCCCCCCCOC(=O)c1cccnc1 [tetradecylnicotinate]
properties for partitioning into the stratum corneum (Po/w predicted by extrapolation) [1]: favorable properties for partitioning into the stratum corneum | vasodilation ([2]; similar topical application of cream (0.05%)): does not result in vasodilation | NAD content of skin removed from the abdomen (no cream applied) (NAD content of skin; three daily applications of 1% cream to the back, FIG. 15): not increased | skin NAD content relative to control animal treated with base cream only (NAD content of skin; three daily topical applications of 1% cream to the back, back skin, FIG. 15): 143% | NAD content of skin removed from the back (NAD content of skin; [7]): increased as a function of the number of daily applications | NAD content of the abdomen (control site) (NAD content of skin; [7]): did not increase | signs of toxicity [3]: in no case were any signs of toxicity observed

CCCCCCCCOC(=O)c1cccnc1 [octylnicotinate]
duration of vasodilation [2]: 360 min | onset of vasodilation [2]: approximately 15 minutes

NC(=O)c1cccnc1 [nicotinamide]
bioconversion to NAD (human skin fibroblasts): can be bioconverted to NAD | DNA integrity (cells [4]): decreased DNA integrity | response (necrosis, apoptosis) to MNNG induced genotoxic shock (Epithelial cells; 500 μM in medium, MNNG 10 or 20 μg/mL, 48 hours, FIGS. 17C and 17F): Normal responses were not established | involvement in cell death pathways (cellular morphology over time) (Epithelial cells; none, 50 μM or 500 μM in medium, FIGS. 18A-18D): involved in cellular necrosis pathways much more than in apoptosis pathways | rate of cell death (percentage survival) (cells [5]): rate of cell death is decreased significantly | p53 levels / p53-signaling response (p53): abnormally high levels of p53

NC(=O)c1ccccc1 [benzamide]
doubling of the cell populations [6]: stopped doubling

CCCCCCCCCCCCCCCCCCOC(=O)c1cccnc1 [octadecylnicotinate]
properties for partitioning into the stratum corneum (Po/w predicted by extrapolation) [1]: favorable properties for partitioning into the stratum corneum

CCCCCCOC(=O)c1cccnc1 [hexylnicotinate]
duration of vasodilation [2]: approximately 90 minutes | onset of vasodilation [2]: approximately 10 minutes

O=C(O)c1cccnc1 [nicotinic acid]
bioconversion to NAD (human skin fibroblasts): can be bioconverted to NAD
